These results are taken from patent publication EP0390111B1 (MERRELL DOW PHARMACEUTICALS INC., priority 1989, dated 1990).

For orientation: Ki means the equilibrium dissociation constant of an inhibitor or competing ligand from its target.

One assay deals with T1, adenosine A-2 receptors (Rattus norvegicus, UniProt P30543).
T1 construct: from tissue; host or cells: rat brain striatum membranes (young male C-D strain rats, Charles River)
Put plainly: Test for affinity for brain adenosine A-2 receptors ([3H]NECA competition, striatal membranes). The following applies: rat brain striatum membranes, [3H]NECA 94 nM, 25°C, 60 minutes; read-out: A-2 Receptor Ki. It counts as binding. The protocol: Membranes for ligand binding are isolated from rat brain striatum. The tissue is homogenized in 20 vol. ice-cold 50 mM Tris-HCl buffer (pH 7.7) using a polytron (setting for 6 to 20 seconds). The homogenate is centrifuged at 50,000 x g for 10 minutes at 4°C. The pellet is again homogenized in a polytron in 20 vol. of buffer, and centrifuged as before. The pellet is finally resuspended in 40 vol. of 50 mM Tris-HCl (pH 7.7) per gram of original wet weight of tissue.
Incubations are carried out at 25°C for 60 minutes. Each tube is filtered through GF/B glass fiber filters using a vacuum. The filters are rinsed two times with 5 ml of the ice-cold buffer. […] The filters are counted by liquid scintillation spectrometry.
Specific binding of [3H]NECA is measured as the excess over blank runs in the presence of 100 µM 2-chloroadenosine. Total membrane-bound radioactivity is about 2.5% of that added to the test tubes. […] Specific binding to membranes is about 50% of the total bound.

For the next assay, the target named is T2, adenosine A-1 receptor (Rattus norvegicus, UniProt P25099).
T2 sequence (P25099 1-326): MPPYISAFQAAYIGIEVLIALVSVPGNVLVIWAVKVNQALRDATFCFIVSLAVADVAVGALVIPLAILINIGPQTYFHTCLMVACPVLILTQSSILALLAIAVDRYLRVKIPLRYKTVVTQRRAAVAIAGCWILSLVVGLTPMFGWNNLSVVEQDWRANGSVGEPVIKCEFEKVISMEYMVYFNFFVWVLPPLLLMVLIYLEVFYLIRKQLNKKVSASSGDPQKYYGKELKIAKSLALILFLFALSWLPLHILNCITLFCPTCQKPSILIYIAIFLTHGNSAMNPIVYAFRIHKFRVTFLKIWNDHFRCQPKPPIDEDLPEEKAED
Description: biochemical.

A further assay concerns the target A-2 receptors. The following applies: brain slice assay; cited from earlier work.
The next assay has as its system adenosine receptors. The following applies: in vivo; cited from earlier work.

SMILES strings stand for the structures. Some results are limits rather than exact numbers.

T1 sequence (P30543 whole entry): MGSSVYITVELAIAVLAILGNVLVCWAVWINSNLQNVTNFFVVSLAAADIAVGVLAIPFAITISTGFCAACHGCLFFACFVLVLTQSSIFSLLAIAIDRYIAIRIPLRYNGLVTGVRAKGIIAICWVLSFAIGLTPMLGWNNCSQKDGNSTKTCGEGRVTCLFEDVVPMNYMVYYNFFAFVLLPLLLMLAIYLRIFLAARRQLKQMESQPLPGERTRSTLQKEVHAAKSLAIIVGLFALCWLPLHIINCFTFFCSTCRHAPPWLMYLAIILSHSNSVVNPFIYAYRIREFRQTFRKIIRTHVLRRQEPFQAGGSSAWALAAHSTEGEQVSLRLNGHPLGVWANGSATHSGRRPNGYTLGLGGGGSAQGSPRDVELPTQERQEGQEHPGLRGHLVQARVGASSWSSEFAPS

With `CCCOC1=Nc2c(cnn2-c2ccccc2)C2=N[C@H](Cc3ccccc3)CN12` [Compound 1, (R)-2,7-dihydro-7-phenyl-2-(phenylmethyl)-5-propoxy-3H-imidazo[1,2-c]pyrazolo[4,3-e]pyrimidine], the inhibitory constant (Ki) was > 6.99 µM at adenosine A-2 receptors and 1.24 µM on adenosine A-1 receptor.

Regarding `CCCOC1=Nc2c(cnn2-c2ccccc2)C2=N[C@@H](Cc3ccccc3)CN12` [Compound 2, (S)-2,7-dihydro-7-phenyl-2-(phenylmethyl)-5-propoxy-3H-imidazo[1,2-c]pyrazolo[4,3-e]pyrimidine], the inhibition constant (Ki) was found to be 0.508 µM on adenosine A-2 receptors and 2.68 µM at adenosine A-1 receptor.

Consider `C1=Nc2c(cnn2-c2ccccc2)C2=N[C@H](Cc3ccccc3)CN12` [Compound 3, (R)-2,7-dihydro-7-phenyl-2-(phenylmethyl)-3H-imidazo[1,2-c]pyrazolo[4,3-e]pyrimidine], for which the Ki came out at 25 µM at adenosine A-2 receptors and 1.9 µM at adenosine A-1 receptor.

In the case of `C1=Nc2c(cnn2-c2ccccc2)C2=N[C@@H](Cc3ccccc3)CN12` [Compound 4, (S)-2,7-dihydro-7-phenyl-2-(phenylmethyl)-3H-imidazo[1,2-c]pyrazolo[4,3-e]pyrimidine], the figures for the Ki on adenosine A-2 receptors and at adenosine A-1 receptor were > 199 µM and 10 µM, respectively.

`C1=Nc2c(ncn2-c2ccccc2)C2=N[C@@H](Cc3ccccc3)CN12` [Compound 5, (S)-7,8-dihydro-3-phenyl-8-(phenylmethyl)-3H-diimidazo[1,2-c:4',5'-e]pyrimidine]: the Ki on adenosine A-2 receptors is > 199 µM; on adenosine A-1 receptor, 44.6 µM.

Regarding `C1=Nc2c(ncn2-c2ccccc2)C2=N[C@H](Cc3ccccc3)CN12` [Compound 6, (R)-7,8-dihydro-3-phenyl-8-(phenylmethyl)-3H-diimidazo[1,2-c:4',5'-e]pyrimidine], the Ki on adenosine A-2 receptors came out at 100 µM; at adenosine A-1 receptor it was 8.4 µM.

Take `CCCOC1=Nc2c(cnn2-c2ccccc2)C2=N[C@H](C)[C@@H](c3ccccc3)N12` [Compound 7, (2R-trans)-2,7-dihydro-2-methyl-3,7-diphenyl-5-propoxy-3H-imidazo[1,2-c]pyrazolo[4,3-e]pyrimidine]: the results for the Ki on adenosine A-2 receptors and on adenosine A-1 receptor were 14.2 µM and 12.1 µM, respectively.

As for `C1=Nc2nc[nH]c2C2=N[C@H](Cc3ccccc3)CN12` [Compound 9, (R)-7,8-dihydro-8-(phenylmethyl)-1H-diimidazo[1,2-c:4',5'-e]pyrimidine], the inhibition constant Ki at adenosine A-2 receptors was > 199 µM; at adenosine A-1 receptor it was 199 µM.

Consider `C1=Nc2nc[nH]c2C2=N[C@@H](Cc3ccccc3)CN12` [Compound 10, (S)-7,8-dihydro-8-(phenylmethyl)-1H-diimidazo[1,2-c:4',5'-e]pyrimidine], for which the figures for the Ki at adenosine A-2 receptors and on adenosine A-1 receptor were > 199 µM and 199 µM, respectively.

With `OC[C@H]1O[C@@H](n2cnc3c2N=CN2C[C@H](Cc4ccccc4)N=C32)[C@H](O)[C@@H]1O` [Compound 13, (S)-7,8-dihydro-3-(β-D-ribofuranosyl)-8-(phenylmethyl)-3H-diimidazo[1,2-c:4',5'-e]pyrimidine], the results for the Ki on adenosine A-2 receptors and at adenosine A-1 receptor were 10.6 µM and 4.5 µM, respectively.

With `OC[C@H]1O[C@@H](n2cnc3c2N=CN2C[C@@H](Cc4ccccc4)N=C32)[C@H](O)[C@@H]1O` [Compound 14, (R)-7,8-dihydro-3-(β-D-ribofuranosyl)-8-(phenylmethyl)-3H-diimidazo[1,2-c:4',5'-e]pyrimidine], the inhibition constant Ki on adenosine A-2 receptors is 46.8 µM; on adenosine A-1 receptor, 65 µM.

On to `CCCn1c(=O)c2[nH]c(-c3ccc(OCC(=O)NCCN)cc3)nc2n(CCC)c1=O` [XAC], for which the inhibition constant Ki on A-2 receptors was 0.049 ± 0.017 µM. Moreover, the “potency in antagonizing the effects of adenosine analogs on heart rate versus blood pressure” value with adenosine receptors is reported as “much more potent in antagonizing the effects of adenosine analogs on heart rate than on blood pressure”.

`CCCn1c(=O)c2[nH]c(-c3ccc(OCC(=O)O)cc3)nc2n(CCC)c1=O` [XCC]: at A-2 receptors, the Ki was 0.034 ± 0.013 µM.
